2 compounds from patent US8080580B2, “Dioxa-bicyclo[3.2.1]octane-2,3,4-triol derivatives” (Pfizer Inc., priority 2008, dated 2011) can be followed below.

Data set [1] is described as follows: PK satellite group of the in-vivo UGE assay (plasma by LC-MS/MS). The conditions noted are these: male, Sprague Dawley, rat plasma, oral gavage; for Tmax: read-out: Mean PK Parameters (n = 2) tmax. On the procedure:
Male Sprague Dawley rats (˜300 g) were singly housed in metabolic cages for urine collection. […] Rats (n=2 to 5/group) received vehicle or compound by oral gavage. Dosing solutions were 0.03 mg/mL, 0.3 mg/mL, 0.9 mg/mL, 3 mg/mL, 9 mg/mL and 18 mg/mL for the 0.1 mg/kg, 1 mg/kg, 3 mg/kg, 10 mg/kg, 30 mg/kg and 60 mg/kg doses respectively. Dosing volume was 1 mL/300 g of body weight for all doses. […] The vehicle was 20% v/v PEG400 and 24% v/v hydroxypropyl beta cyclodextrin; HPBCD. Following oral administration, urine was collected for 24 hours. Glucose concentration was measured in urine by UV absorbance spectrophotometry at 340 nm using a Roche Hitachi 917 spectrophotometer (Diamond Diagnostics, Holliston, Mass.). The total amount of glucose excreted in the urine was calculated as the product of urine concentration and urine volume using the formula below: urinary glucose excreted (mg)/200 g body weight=urinary glucose concentration (mg/dL)×urine volume (dL)×200/rat body weight (g). […] Blood (0.1 mL) was collected from the PK satellite group animals at 1, 2, 4, 7, 24 hours postdose to obtain plasma and analyzed by LC-MS/MS.

Data set [2] has as its target T1, human SGLT2 (Homo sapiens, UniProt P31639).
T1 construct: expressed in transfected cells; host or cells: CHO-FlpIn (Invitrogen)
T1 sequence (P31639 1-672): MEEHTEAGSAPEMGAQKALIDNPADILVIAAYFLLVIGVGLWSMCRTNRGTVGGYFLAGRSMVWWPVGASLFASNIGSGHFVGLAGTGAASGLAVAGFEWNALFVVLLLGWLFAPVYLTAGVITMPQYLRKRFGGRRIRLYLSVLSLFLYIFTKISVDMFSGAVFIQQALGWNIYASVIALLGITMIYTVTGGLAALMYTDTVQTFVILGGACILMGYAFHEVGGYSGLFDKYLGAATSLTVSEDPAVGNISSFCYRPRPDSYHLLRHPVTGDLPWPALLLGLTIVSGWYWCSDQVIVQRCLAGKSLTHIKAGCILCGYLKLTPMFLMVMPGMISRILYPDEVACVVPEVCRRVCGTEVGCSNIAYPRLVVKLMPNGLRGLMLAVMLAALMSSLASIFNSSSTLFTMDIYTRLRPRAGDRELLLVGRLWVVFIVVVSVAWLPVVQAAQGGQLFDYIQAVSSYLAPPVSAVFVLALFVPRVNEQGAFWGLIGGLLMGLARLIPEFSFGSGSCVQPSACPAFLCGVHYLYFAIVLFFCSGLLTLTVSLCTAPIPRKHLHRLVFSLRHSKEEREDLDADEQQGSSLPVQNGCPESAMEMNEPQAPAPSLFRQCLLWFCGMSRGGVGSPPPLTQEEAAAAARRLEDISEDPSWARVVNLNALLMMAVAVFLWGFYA
The data set can be described thus: SGLT2 functional assay: inhibition of AMG uptake in CHO-FlpIn cells stably expressing human SGLT2. Format: cell-based. Particulars: individual runs (Run No.), read-out: hSGLT2 IC50. From the text:
The SGLT2 functional assay was designed to detect the inhibition of methyl-alpha-D glucopyranoside (AMG—a non-metabolizable form of glucose) uptake via the SGLT2 transporter. The SGLT2 transporter recovers glucose from the proximal tubules of the kidney; its inhibition results in sugar wasted in the urine. The positive control compound, Phlorizin, is a known inhibitor of glucose uptake for SGLT2 and was used for comparing the high percent effect of SGLT2 inhibition of the test compounds.
CHO-FlpIn (Invitrogen, Carlsbad, Calif.) cells stably expressing human SGLT2 (pcDNA5/FRT) were plated in Iso-TC 96 well plates (Perkin Elmer, Waltham, Mass.) at a density of 100,000 cells/well in 100 microL of growth media (1:1 F-12/DMEM media (Gibco, Carlsbad, Calif.), 10% FBS (Sigma, St. Louis Mo.), 1× Pen/Strep (Gibco, Carlsbad, Calif.), 600 microg/mL Hygromycin (Invitrogen, Carlsbad, Calif.)). Prior to treating with test compound, confluent cells were serum starved for 2 hours at 37° C. in 1:1 F-12/DMEM media, replacing with fresh F-12/DMEM media after 1 hour. […] Cell plates were then incubated for 3 hours at 37° C. for AMG uptake.

Where “and” joins values, the source holds several entries; their conditions need not be identical. Identical values can stand only once. Like-named read-outs stand apart in the source and are kept apart here.

For the compound `COc1ccc(Cc2cc([C@]34OC[C@](CO)(O3)[C@@H](O)[C@H](O)[C@H]4O)ccc2C)cc1` [Example 1A, (1S,2S,3S,4R,5S)-1-hydroxymethyl-5-[3-(4-methoxy-benzyl)-4-methyl-phenyl]-6,8-dioxa-bicyclo[3.2.1]octane-2,3,4-triol], in data set [1] (10 mg/kg), the AUC(0-t) (commonly exposure summed from dosing to a finite time, without extrapolation to infinity) was found to be 6630 ng·h/mL; the Cmax (in general, the peak of the concentration-time curve) was determined as 1260 ng/mL; the Tmax – broadly, the time at which the peak concentration occurs – came to 1 h. Also, the IC50 (as a rule, the concentration needed to halve the response being measured) in data set [2] was 1.61 nM and 1.55 nM and 1.15 nM and 0.779 nM and 0.715 nM and 0.654 nM.
On to `CCOc1ccc(Cc2cc([C@]34OC[C@](CO)(O3)[C@@H](O)[C@H](O)[C@H]4O)ccc2Cl)cc1` [Example 4A, (1S,2S,3S,4R,5S)-5-[4-chloro-3-(4-ethoxy-benzyl)-phenyl]-1-hydroxymethyl-6,8-dioxa-bicyclo[3.2.1]octane-2,3,4-triol], for which the AUC(0-t) in data set [1] (0.1 mg/kg) worked out at 188 ng·h/mL; in data set [1] (1 mg/kg), 2000 ng·h/mL; in data set [1] (3 mg/kg), 7080 ng·h/mL; in data set [1] (10 mg/kg), 26400 ng·h/mL; in data set [1] (30 mg/kg) it was 10700 ng·h/mL; in data set [1] (60 mg/kg), 233000 ng·h/mL. For the same compound, the Cmax was found to be 43.4 ng/mL in data set [1] (0.1 mg/kg); 372 ng/mL in data set [1] (1 mg/kg); 1320 ng/mL in data set [1] (3 mg/kg); 3100 ng/mL in data set [1] (10 mg/kg); 10500 ng/mL in data set [1] (30 mg/kg); 25300 ng/mL in data set [1] (60 mg/kg). Moreover, the Tmax was found to be 1 h in data set [1] (1 mg/kg); 1 h in data set [1] (3 mg/kg); 2.5 h in data set [1] (10 mg/kg); 1 h in data set [1] (30 mg/kg); 2 h in data set [1] (60 mg/kg). Besides, in data set [2], the 50% inhibitory concentration (IC50) is 1.27 nM and 0.816 nM and 0.57 nM and 0.922 nM and 1.85 nM and 0.812 nM and 0.7 nM and 0.737 nM and 0.846 nM and 0.768 nM.
